US8071633B2, “Pharmaceutical composition for treating spinocerebellar ataxia” (Shionogi & Co., Ltd., priority 2004, dated 2011)

Tests used:
[1] = test system: cerebellum-injured rat by administration of Ara-C; test: Experiment 2: effect of improving ataxia on cerebellum-injured rat by administration of Ara-C (fall index, open-field method); format: in vivo, Sprauge-Dawley rats; conditions: for effect on improvement of ataxia (fall index): oral once a day for seven days, 24 hours after final administration, FIG. 2; for dosage ratio giving the same level efficacy versus Compound (I-1): oral, repeated administration
Method: Experiment 2 Effect of improving ataxia on cerebellum-injured rat by administration of Ara-C
Ara-C (60 mg/kg, Nippon Shinyaku) was subcutaneously administered to Sprauge-Dawley rats (CLEA Japan, Inc) of 2 days old and 3 days old, and the effects of improving ataxia on Compound (I-1), Control Compound 1 and Control Compound 2 at 4 weeks old were investigated.
The effect of improving on ataxia was evaluated with a fall index by an open-field method. Rats were left in the center of an open-filed (circle open-filed, 75 cm in a diameter, 25 divisions), number of divisions passed and numbers of falls for 3 minutes were counted, and a fall index (numbers of falls/number of divisions passed) was calculated.
Each of the compounds was dissolved in a physiological saline on the day of administration. Each compound was orally administered to rats using a sonde for oral administration at the following dosage; Compound (I-1): 0.1 mg/kg, 0.3 mg/kg, 1 mg/kg and 3 mg/kg, Control Compound 1: 30 mg/kg and 100 mg/kg, Control Compound 2: 100 mg/kg and 300 mg/kg. Physiological saline alone was administered to rats as a control group. The compounds were repetitively orally administered one a day for seven days and the effect was investigated 24 hours after the final administration. Volume for oral administration was 0.1 mL per 100 g body weight of a rat. Sample numbers were 5 or more in every group.

[2] = test system: Rolling Mouse Nagoya; test: Experiment 1: effect of improving ataxia on Rolling Mouse Nagoya (fall index, open-field method); format: in vivo; conditions: for effect on improvement of ataxia (fall index): 1 hour after administration, FIG. 1
Description: Experiment 1 Effect of improving ataxia on Rolling Mouse Nagoya
Rolling Mouse Nagoya, a hereditary ataxia mouse, is known as a model mouse for spinocerebellar ataxia and has been reported in many papers (E. Kurihara, N. Fukuda, S. Narumi, T. Matsuo, S. Saji, and Y. Nagawa, Jpn. Pharmacol., Ther., 13, 49-56 (1985), Y. Mano, K. Matsui, E. Toyoshima, and K. Ando, Acta. Neurol. Scand., 73, 352-358 (1986), K. Kinoshita, T. Fujitsuka, M. Yamamura, and Y. Matsuoka, Eur. J. Pharmacol., 274, 65-72 (1995), K. Kinoshita, T. Fukushima, Y, Kodama, J. Sugihara, M. Yamamura, and Y. Matsuoka, Biol. Pharm. Bull., 20, 36-39 (1997)).
Effect of Compound (I-1) for ataxia of Rolling Mouse Nagoya was investigated. The following compounds in Patent Literature 1 and Non-Patent Literature 1 were used as Control Compounds 1 and 2.
An effect on improvement of ataxia was evaluated with a fall index by an open-field method. Mice were left in the center of an open-field (circle open-field, 75 cm in a diameter, 25 divisions). Number of divisions passed and numbers of falls for 5 minutes were counted, and a fall index (numbers of falls/number of divisions passed) was calculated.
Each of the compounds was dissolved in a physiological saline on the day of the experiment. Each compound was orally administered to mice using a sonde for oral administration at the following dosage; Compound (I-1): 1 mg/kg and 3 mg/kg, Control Compound 1: 30 mg/kg and 100 mg/kg, Control Compound 2: 100 mg/kg and 300 mg/kg. Physiological saline alone was administered to mice as a control group. Volume for oral administration was 0.2 mL per 20 g body weight of a mouse.
Effect on improvement of ataxia for each mouse was evaluated 1 hour after administration by the open-field method. Sample numbers were 5 or more in every group.

[3] = test system: Rolling Mouse Nagoya; test: Experiment 3: effect of improving ataxia on Rolling Mouse Nagoya (fall index, square open-field); format: in vivo; conditions: oral 100 mg/kg, 1 hour after administration, FIG. 3
Method: Experiment 3 Effect of improving ataxia on Rolling Mouse Nagoya
Effects of the compounds described in Patent Literature 8 (I-3: R=CN, I-1: R=CONH2) and Control Compound 2 on ataxia on Rolling Mouse Nagoya were investigated.
The effect on ataxia was evaluated with a fall index by an open-field method. Mice were left in the center of an open-field (square open-field, 100 cm×100 cm, divided into 25 squares of 20 cm×20 cm), number of squares passed and numbers of falls for 10 minutes were counted, and a fall index (numbers of falls/number of squares passed) was calculated.
Each of the compounds was dissolved in a physiological saline on the day of the experiment. Each compound was orally administered to mice using a sonde for oral administration at the following dosage; Compounds (I-3) and (I-4): 10 mg/kg, Control Compound 2: 100 mg/kg. Volume for oral administration was 0.2 mL per 20 g body weight of a mouse.
Each of the test compound was orally administered just after a fall index of each mouse in the open-field was calculated. A fall index was calculated again 1 hour after administration and the effect of improving ataxia was evaluated. Sample numbers were 5 or more in every group.

[4] = oral, comparison of effective doses

Structure (SMILES) | effect on improvement of ataxia (fall index) ([1]; 0.3 mg/kg or more) | effect on improvement of ataxia (fall index) ([2]; oral 3 mg/kg) | effect of improving ataxia relative to Control Compound 1 [2, 4] [times] | effect of improving ataxia relative to Control Compound 2 [2, 4] [times] | effect on improvement of ataxia (fall index) ([1]; only at 100 mg/kg (30 and 100 mg/kg tested)) | dosage ratio giving the same level efficacy versus Compound (I-1) [1] | effect on improvement of ataxia (fall index) ([2]; oral, only at 100 mg/kg (30 and 100 mg/kg tested)) | effect of improving ataxia (fall index before vs after administration) [3] | effect on improvement of ataxia (fall index) ([1]; even at 300 mg/kg) | effect on improvement of ataxia (fall index) ([2]; oral, even at 300 mg/kg (100 and 300 mg/kg tested))
C[C@@H]1OC(=O)N[C@@H]1C(=O)N[C@@H](Cc1cscn1)C(=O)N1CCC[C@H]1C.O.O.O [Compound (I-1)] | superior effect on improvement of ataxia to Control Compounds | superior effect on improvement of ataxia | ≥ 30 | ≥ 100 |  |  |  |  |  | 
CN1C(=O)C[C@H](C(=O)N[C@H](Cc2c[nH]cn2)C(=O)N2CCC[C@@H]2C(N)=O)NC1=O [Control Compound 1] |  |  |  |  | superior effect on improvement of ataxia in comparison of a control group | 1/300 | superior effect of improving ataxia to that in a control group |  |  | 
NC(=O)[C@H]1CCCN1C(=O)[C@@H](Cc1c[nH]cn1)NC(=O)[C@@H]1CCC(=O)N1 [Control Compound 2] |  |  |  |  |  | 1/1000 |  | weak improvement effect | does not show the improvement effect | does not show the improvement effect
